Test results published in US7235536B2, “Cellulose sulfate and other sulfated polysaccharides to prevent and treat papilloma virus infection and other infections” (Rush Presbyterian-St. Luke's Medical Center, priority 2000, dated 2007).

Key:
Assay in all cases: Microbial challenge of CS gel
Format in all cases: cell-based
Aspergillus niger = test system: Aspergillus niger
Experimental: (§1) 6% CS was prepared in water as a translucent gel. Twenty grams of the gel was placed in a plastic screw-cap centrifuge tube. The microbial inoculants were prepared, gently vortexed and 0.1 ml inoculant was aseptically pipetted into the 20.0 gram gel. This procedure was repeated for each microbial organism. The samples were incubated at room temperature (20-25° C.) for 14 days or 28 days. The microbes tested and their theoretical yields can be found in Table F. After 14 or 28 days incubation, dilutions (10^−1, 10^−2, 10^−3) of the gels were made in saline and 1 ml plated onto Sabouraud dextrose (Aspergillus and Candida) or onto tryptic soy (other microbes). The number of organisms that grew after 3-7 days at room temperature were counted.
(§2) In another study, CS was dissolved in water at the concentrations indicated below. No other ingredients, including preservatives, were added. The gels were challenged with microbes as described above except that the gels were examined for the presence of microbes after 1, 2, 3, 4 and 7 days. The amount of microbes origially inoculated in the gels is also shown below.

Pseudomonas aeruginosa = test system: Pseudomonas aeruginosa
Experimental: as §1, §2

Escherichia coli = test system: Escherichia coli
Experimental: as §1, §2

sodium cellulose sulfate
Day 14 CFU/g (Aspergillus niger; 6% CS gel, ATCC 16404, room temperature, Day 14): 0 CFU/g
Day 28 CFU/g (Aspergillus niger; 6% CS gel, ATCC 16404, room temperature, Day 28): 0 CFU/g
Asperigillus niger CFU (Aspergillus niger; CS 0.06% in water, 24 hours): 0 CFU × 10^5/ml
Asperigillus niger CFU (Aspergillus niger; CS 0.06% in water, 48 hours): 0 CFU × 10^5/ml
Asperigillus niger CFU (Aspergillus niger; CS 0.06% in water, 72 hours): 0 CFU × 10^5/ml
Asperigillus niger CFU (Aspergillus niger; CS 0.06% in water, 96 hours): 0 CFU × 10^5/ml
Asperigillus niger CFU (Aspergillus niger; CS 0.06% in water, 7 days): 0 CFU × 10^5/ml
Asperigillus niger CFU (Aspergillus niger; CS 0.6% in water, 24 hours): 0 CFU × 10^5/ml
Asperigillus niger CFU (Aspergillus niger; CS 0.6% in water, 48 hours): 0 CFU × 10^5/ml
Asperigillus niger CFU (Aspergillus niger; CS 0.6% in water, 72 hours): 0 CFU × 10^5/ml
Asperigillus niger CFU (Aspergillus niger; CS 0.6% in water, 96 hours): 0 CFU × 10^5/ml
Asperigillus niger CFU (Aspergillus niger; CS 0.6% in water, 7 days): 0 CFU × 10^5/ml
Asperigillus niger CFU (Aspergillus niger; CS 1.2% in water, 24 hours): 0 CFU × 10^5/ml
Asperigillus niger CFU (Aspergillus niger; CS 1.2% in water, 48 hours): 0 CFU × 10^5/ml
Asperigillus niger CFU (Aspergillus niger; CS 1.2% in water, 72 hours): 0 CFU × 10^5/ml
Asperigillus niger CFU (Aspergillus niger; CS 1.2% in water, 96 hours): 0 CFU × 10^5/ml
Asperigillus niger CFU (Aspergillus niger; CS 1.2% in water, 7 days): 0 CFU × 10^5/ml
Asperigillus niger CFU (Aspergillus niger; CS 6% in water, 24 hours): 0 CFU × 10^5/ml
Asperigillus niger CFU (Aspergillus niger; CS 6% in water, 48 hours): 0 CFU × 10^5/ml
Asperigillus niger CFU (Aspergillus niger; CS 6% in water, 72 hours): 0 CFU × 10^5/ml
Asperigillus niger CFU (Aspergillus niger; CS 6% in water, 96 hours): 0 CFU × 10^5/ml
Asperigillus niger CFU (Aspergillus niger; CS 6% in water, 7 days): 0 CFU × 10^5/ml
inactivation of Asperigillus (Aspergillus niger; CS gel in as low a concentration as 0.6%): completely inactivated
inactivation of Pseudomonas (Pseudomonas aeruginosa; 6% CS gel): completely inactivated
Day 14 CFU/g (Pseudomonas aeruginosa; 6% CS gel, ATCC 9027, room temperature, Day 14): 0 CFU/g
Day 28 CFU/g (Pseudomonas aeruginosa; 6% CS gel, ATCC 9027, room temperature, Day 28): 0 CFU/g
Pseudomans aeruginosa CFU (Pseudomonas aeruginosa; CS 0.06% in water, 24 hours): 0 CFU × 10^5/ml
Pseudomans aeruginosa CFU (Pseudomonas aeruginosa; CS 0.06% in water, 48 hours): 0.48 CFU × 10^5/ml
Pseudomans aeruginosa CFU (Pseudomonas aeruginosa; CS 0.06% in water, 72 hours): 1.125 CFU × 10^5/ml
Pseudomans aeruginosa CFU (Pseudomonas aeruginosa; CS 0.06% in water, 96 hours): 1.87 CFU × 10^5/ml
Pseudomans aeruginosa CFU (Pseudomonas aeruginosa; CS 0.06% in water, 7 days): 2.04 CFU × 10^5/ml
Pseudomans aeruginosa CFU (Pseudomonas aeruginosa; CS 0.6% in water, 24 hours): 5.43 CFU × 10^5/ml
Pseudomans aeruginosa CFU (Pseudomonas aeruginosa; CS 0.6% in water, 48 hours): 6.80 CFU × 10^5/ml
Pseudomans aeruginosa CFU (Pseudomonas aeruginosa; CS 0.6% in water, 72 hours): 4.43 CFU × 10^5/ml
Pseudomans aeruginosa CFU (Pseudomonas aeruginosa; CS 0.6% in water, 96 hours): 6.92 CFU × 10^5/ml
Pseudomans aeruginosa CFU (Pseudomonas aeruginosa; CS 0.6% in water, 7 days): 6.05 CFU × 10^5/ml
Pseudomans aeruginosa CFU (Pseudomonas aeruginosa; CS 1.2% in water, 24 hours): 2.08 CFU × 10^5/ml
Pseudomans aeruginosa CFU (Pseudomonas aeruginosa; CS 1.2% in water, 48 hours): 2.625 CFU × 10^5/ml
Pseudomans aeruginosa CFU (Pseudomonas aeruginosa; CS 1.2% in water, 72 hours): 2.31 CFU × 10^5/ml
Pseudomans aeruginosa CFU (Pseudomonas aeruginosa; CS 1.2% in water, 96 hours): 2.82 CFU × 10^5/ml
Pseudomans aeruginosa CFU (Pseudomonas aeruginosa; CS 1.2% in water, 7 days): 4.79 CFU × 10^5/ml
Pseudomans aeruginosa CFU (Pseudomonas aeruginosa; CS 6% in water, 24 hours): 0 CFU × 10^5/ml
Pseudomans aeruginosa CFU (Pseudomonas aeruginosa; CS 6% in water, 48 hours): 0 CFU × 10^5/ml
Pseudomans aeruginosa CFU (Pseudomonas aeruginosa; CS 6% in water, 72 hours): 0 CFU × 10^5/ml
Pseudomans aeruginosa CFU (Pseudomonas aeruginosa; CS 6% in water, 96 hours): 0 CFU × 10^5/ml
Pseudomans aeruginosa CFU (Pseudomonas aeruginosa; CS 6% in water, 7 days): 0 CFU × 10^5/ml
inactivation of Pseudomonas (Pseudomonas aeruginosa; lower CS concentrations): not inactivated but growth was prevented
inactivation of Escherichia (Escherichia coli; 6% CS gel): completely inactivated
Day 14 CFU/g (Escherichia coli; 6% CS gel, ATCC 8739, room temperature, Day 14): 0 CFU/g
Day 28 CFU/g (Escherichia coli; 6% CS gel, ATCC 8739, room temperature, Day 28): 0 CFU/g
Escherichia coli CFU (Escherichia coli; CS 0.06% in water, 24 hours): 0 CFU × 10^5/ml
Escherichia coli CFU (Escherichia coli; CS 0.06% in water, 48 hours): 1.15 CFU × 10^5/ml
Escherichia coli CFU (Escherichia coli; CS 0.06% in water, 72 hours): 1.21 CFU × 10^5/ml
Escherichia coli CFU (Escherichia coli; CS 0.06% in water, 96 hours): 0.13 CFU × 10^5/ml
Escherichia coli CFU (Escherichia coli; CS 0.06% in water, 7 days): 1.12 CFU × 10^5/ml
Escherichia coli CFU (Escherichia coli; CS 0.6% in water, 24 hours): 5.6 CFU × 10^5/ml
Escherichia coli CFU (Escherichia coli; CS 0.6% in water, 48 hours): 5.81 CFU × 10^5/ml
Escherichia coli CFU (Escherichia coli; CS 0.6% in water, 72 hours): 4.43 CFU × 10^5/ml
Escherichia coli CFU (Escherichia coli; CS 0.6% in water, 96 hours): 6.92 CFU × 10^5/ml
Escherichia coli CFU (Escherichia coli; CS 0.6% in water, 7 days): 4.39 CFU × 10^5/ml
Escherichia coli CFU (Escherichia coli; CS 1.2% in water, 24 hours): 0.98 CFU × 10^5/ml
Escherichia coli CFU (Escherichia coli; CS 1.2% in water, 48 hours): 3.125 CFU × 10^5/ml
Escherichia coli CFU (Escherichia coli; CS 1.2% in water, 72 hours): 1.625 CFU × 10^5/ml
Escherichia coli CFU (Escherichia coli; CS 1.2% in water, 96 hours): 4.54 CFU × 10^5/ml
Escherichia coli CFU (Escherichia coli; CS 1.2% in water, 7 days): 3.78 CFU × 10^5/ml
Escherichia coli CFU (Escherichia coli; CS 6% in water, 24 hours): 0 CFU × 10^5/ml
Escherichia coli CFU (Escherichia coli; CS 6% in water, 48 hours): 0.01 CFU × 10^5/ml
Escherichia coli CFU (Escherichia coli; CS 6% in water, 72 hours): 0 CFU × 10^5/ml
Escherichia coli CFU (Escherichia coli; CS 6% in water, 96 hours): 0 CFU × 10^5/ml
Escherichia coli CFU (Escherichia coli; CS 6% in water, 7 days): 0 CFU × 10^5/ml
inactivation of Escherichia (Escherichia coli; lower CS concentrations (except 0.06% CS gel), no growth occurs): either not inactivated or only to a minor extent
